Measured values from patent publication US20120121692A1, “COMPOUNDS AND COMPOSITIONS COMPRISING CDK INHIBITORS AND METHODS FOR TREATING CANCER” (SHANDONG UNIVERSITY, priority 2009, published 2012).
Like-named read-outs stand apart in the source and are kept apart here.

Key:
[1] = tested on: HCT116 cells; experiment: MTT cytotoxicity screening, human colon cancer cell line HCT116; format: cell-based
Description: Human colon cancer cell line HCT116 can be used for the preliminary cytotoxicity screening of the disclosed compounds as disclosed by Mosmann, T., “Rapid colorimetric assay for cellular growth and survival: application to proliferation and cytotoxicity assays.” J. Immunol. Methods, (1983) 65(1-2): p. 55-63 referred to herein further as the “MTT test” which is incorporated herein by reference in its entirety.
The disclosure of Mosmann recites the following. “MTT 93-(4,5-dimethylthirazol-2-yl)-2,5-diphenyl tetrazolium bromide; Sigman catalog no. M2128) was dissolved in PBS at 5 mg/ml and filtered to sterilize and remove a small amount of insoluble residue present in some batches of MTT. At the times indicated below, stock MTT solution (10 ml per 100 ml) was added to all wells of an assay, and plates were incubated at 37° C. for 4 h. Acid-siopropanol (100 ml of 0.04 N HCl in isopropanol) was added to all wells and mixed thoroughly to dissolve the dark blue crystals. After a few minutes at room temperature to ensure that all crystals were dissolved, the plates were read o a Dynatech MR580Microelisa reader, using a test wavelength of 570 nm, a reference wavelength of 630 nm, and a calibration setting of 1.99 (or 1.0 if the samples were strongly colored). Plates were normally read within 1 h of adding the isopropanol.
“Our final procedure was to add 0.01 ml MTT (5 mg/ml in phosphate-buffered saline) to 0.1 ml cells in growth medium. After 4 h at 37° C. for MTT cleavage, the formazan product was solublilized by the addition of 0.1 ml 0.04 N HCl in isopropanol. Optical density was measured on a Dynatech MR 580 plate reader, using a reference wavelength of 630 nm and a test wavelength of 570 nm.” 3-(4,5-Dimethylthiazol-2-yl)-2,5-diphenyltetrazolium bromide, a tetrazole, can pass through cellular membrane to enter into cells. This tetrazole may be reduced to the purple formazan in the mitochondria of living cells, which can diffuse out to form crystals. This crystal can be dissolved in the dimethyl sulfoxide to form a colored solution. The absorbance of this colored solution can be quantified by measuring at certain wavelength (490 nm) using a spectrophotometer. The quantity of the formazan crystal is proportional to the number of living cells.
As used herein, cells were cultured in McCoy's 5A medium supplemented with 10% heat-inactivated Fetal Bovine Serum (FBS) and 5% Penicillin/Streptomycin solution. McCoy's 5A, 1× (Iwakata & Grace modified) medium with L-Glutamine, DPBS, 1× w/o Ca and Mg, Penicillin/Streptomycin solution, Trypsin EDTA, 1× and PBS, 1× w/o Ca and Mg were purchased from Mediatech, Inc. (USA). FBS was purchased from Hyclone (USA).
The cytotoxicity of the compounds was estimated using the MTT assay. A 96-well plate was seeded with 100 μl medium containing HCT116 cells in suspension at a density of 2.5×10^4 cells/ml. After 24 hours of incubation, the cells were treated with the compounds, which were dissolved in DMSO (dimethyl sulfoxide) as stock solutions and diluted to final concentrations of 100 μM, 50 μM, 25 μM, 12.5 μM, 6.25 μM & 1 μM (for compounds tested in the micromolar concentrations) and 10 μM, 1 μM, 500 nM, 250 nM, 125 nM & 62.5 nM (for compounds tested in the nanomolar concentration range) using medium containing 0.1% DMSO. The final concentration of DMSO in the culture medium was maintained at 0.1%-0.001% (v/v). After 48 hrs incubation in the presence of test compounds, the spent medium was removed and the wells were washed twice with 100 μL of PBS solution. 100 μL of fresh medium and 10 μL of MTT (5 mg/ml in PBS) was added to the wells and incubated at 37° C. in dark for 4 hrs. The formazan product was dissolved by adding 100 μL of 100% DMSO after removing the medium from each well and was stabilized by adding 12.5 μL of Sorensen's glycine buffer to each well. […]

[2] = Homo sapiens, HCT-116, 48 hrs incubation, absorbance 490 nm, primary screening, read-out: IC50
[3] = Homo sapiens, HCT-116, further evaluated after secondary screening (Table VIII), read-out: IC50 value

Molecule	IC50 ([1]; 48 hrs incubation, absorbance 490 nm, primary screening, read-out: IC50) [µM]	IC50 [1, 2] [µM]	melting point [°C]	IC50 [1, 3] [µM]
5,7-dimethoxy-8-(1-methyl-1,2,3,6-tetrahydropyridin-4-yl)-2-(3-methylphenyl)-4H-chromen-4-one [Compound F2]	20.6	–	–	–
COc1cc(OC)c(C2=CCN(C)CC2)c(O)c1C(=O)/C=C/c1ccccc1 [Compound A1, (E)-1-(2-Hydroxy-4,6-dimethoxy-3-(1-methyl-1,2,3,6-tetrahydropyridine-4-yl)phenyl)-3-phenylprop-2-en-1-one]	–	10.1	–	–
COc1cc(OC)c(C2=CCN(C)CC2)c(O)c1C(=O)/C=C/c1ccccc1Cl [Compound A2, (E)-3-(2-chlorophenyl)-1-(2-hydroxy-4,6-dimethoxy-3-(1-methyl-1,2,3,6-tetrahydropyridine-4-yl)phenyl)-2-propylene-1-one]	–	28.3	184 to 185	–
COc1cc(OC)c(C2=CCN(C)CC2)c(O)c1C(=O)/C=C/c1ccccc1[N+](=O)[O-] [Compound A3, (E)-1-(2-hydroxy-4,6-dimethoxy-3-(1-methyl-1,2,3,6-tetrahydropyridine-4-yl)phenyl)-3-(2-nitrophenyl)-2-propylene-1-one]	–	17.9	149 to 151	–
COc1cccc(/C=C/C(=O)c2c(OC)cc(OC)c(C3=CCN(C)CC3)c2O)c1OC [Compound A4, (E)-3-(2,3-dimethoxyphenyl)-1-(2-hydroxy-4,6-dimethoxy-3-(1-methyl-1,2,3,6-tetrahydropyridine-4-yl)phenyl)-2-propylene-1-one]	–	5.22	171 to 172	> 1
COc1cc(OC)c(C2=CCN(C)CC2)c(O)c1C(=O)/C=C/c1cccc(C)c1 [Compound A5, (E)-1-(2-hydroxy-4,6-dimethoxy-3-(1-methyl-1,2,3,6-tetrahydropyridine-4-yl)phenyl)-3-meta-methylphenyl-2-propylene-1-one]	–	8.89	165 to 166	–
COc1cccc(/C=C/C(=O)c2c(OC)cc(OC)c(C3=CCN(C)CC3)c2O)c1 [Compound A6, (E)-1-(2-hydroxy-4,6-dimethoxy-3-(1-methyl-1,2,3,6-tetrahydropyridine-4-yl)phenyl)-3-(3-methoxyphenyl)-2-propylene-1-one]	–	6.78	140 to 141	–
COc1cc(OC)c(C2=CCN(C)CC2)c(O)c1C(=O)/C=C/c1cccc(Cl)c1 [Compound A7, (E)-3-(3-chlorophenyl)-1-(2-hydroxy-4,6-dimethoxy-3-(1-methyl-1,2,3,6-tetrahydropyridine-4-yl)phenyl)-2-propylene-1-one]	–	3.24	182 to 184	–
COc1cc(OC)c(C2=CCN(C)CC2)c(O)c1C(=O)/C=C/c1cccc([N+](=O)[O-])c1 [Compound A8, (E)-1-(2-hydroxy-4,6-dimethoxy-3-(1-methyl-1,2,3,6-tetrahydropyridine-4-yl)phenyl)-3-(3-nitrophenyl)-2-propylene-1-one]	–	10.5	128 to 130	–
COc1cc(OC)c(C2=CCN(C)CC2)c(O)c1C(=O)/C=C/c1ccc(C)cc1 [Compound A9, (E)-1-(2-hydroxy-4,6-dimethoxy-3-(1-methyl-1,2,3,6-tetrahydropyridine-4-yl)phenyl)-3-(4-methylphenyl)-2-propylene-1-one]	–	3.87	150 to 151	–
COc1ccc(/C=C/C(=O)c2c(OC)cc(OC)c(C3=CCN(C)CC3)c2O)cc1 [Compound A10, (E)-1-(2-hydroxy-4,6-dimethoxy-3-(1-methyl-1,2,3,6-tetrahydropyridine-4-yl)phenyl)-3-(4-methoxyphenyl)-2-propylene-1-one]	–	11.8	177 to 178	–
COc1cc(OC)c(C2=CCN(C)CC2)c(O)c1C(=O)/C=C/c1ccc(O)cc1 [Compound A11, (E)-1-(2-hydroxy-4,6-dimethoxy-3-(1-methyl-1,2,3,6-tetrahydropyridine-4-yl)phenyl)-3-(4-hydroxyphenyl)-2-propylene-1-one]	–	88.2	98 to 100	–
COc1cc(OC)c(C2=CCN(C)CC2)c(O)c1C(=O)/C=C/c1ccc(Cl)cc1 [Compound A12, (E)-3-(4-chlorophenyl)-1-(2-hydroxy-4,6-dimethoxy-3-(1-methyl-1,2,3,6-tetrahydropyridine-4-yl)phenyl)-2-propylene-1-one]	–	8.3	169 to 170	–
COc1cc(OC)c(C2=CCN(C)CC2)c(O)c1C(=O)/C=C/c1ccc(Br)cc1 [Compound A13, (E)-3-(4-bromophenyl)-1-(2-hydroxy-4,6-dimethoxy-3-(1-methyl-1,2,3,6-tetrahydropyridine-4-yl)phenyl)-2-propylene-1-one]	–	8.76	164 to 165	–
COc1cc(OC)c(C2=CCN(C)CC2)c(O)c1C(=O)/C=C/c1ccc(N(C)C)cc1 [Compound A14, (E)-3-(4-dimethylaminophenyl)-1-(2-hydroxy-4,6-dimethoxy-3-(1-methyl-1,2,3,6-tetrahydropyridine-4-yl)phenyl)-2-propylene-1-one]	–	30.5	176 to 177	–
COc1cc(OC)c(C(=O)/C=C/c2ccc(C)cc2)c(O)c1CN1CCCCC1 [Compound C1, (E)-1-(2-hydroxy-4,6-dimethoxy-3-(piperidin-1-ylmethyl)phenyl)-3-(4-methylphenyl)-2-propylene-1-one]	–	5.57	–	–
COc1cccc(/C=C/C(=O)c2c(OC)cc(OC)c(CN3CCCCC3)c2O)c1 [Compound C3, (E)-1-(2-hydroxy-4,6-dimethoxy-3-(piperidin-1-ylmethyl)phenyl)-3-(3-methoxyphenyl)-2-propylene-1-one]	–	2.85	–	–
COc1cc(OC)c(C(=O)/C=C/c2cccc(C)c2)c(O)c1CN1CCCCC1 [Compound C5]	–	–	113 to 114	–
COc1cc(OC)c(C(=O)/C=C/c2ccc(Br)cc2)c(O)c1CN1CCCCC1 [Compound C6]	–	–	99 to 100	–
COc1cc(OC)c(C(=O)/C=C/c2cccc(C)c2)c(O)c1CN1CCOCC1 [Compound D7, (E)-3-(3-methylphenyl)-1-(2-hydroxy-4,6-dimethoxy-3-(morpholinemethyl)-phenyl)-2-propylene-1-one]	–	–	158 to 159	–
COc1cc(OC)c(C(=O)/C=C/c2cc(OC)c(OC)c(OC)c2)c(O)c1CN1CCOCC1 [Compound D8, (E)-3-(3,4,5-trimethoxyphenyl)-1-(2-hydroxy-4,6-dimethoxy-3-(morpholinemethyl)-phenyl)-2-propylene-1-one]	–	–	169 to 170	–
COc1cc(OC)c2c(=O)cc(-c3ccccc3)oc2c1C1=CCN(C)CC1 [Compound F1, 5,7-Dimethoxy-8-(1-methyl-1,2,3,6-tetrahydropyridin-4-yl)-2-phenyl-4H-chromen-4-one]	–	21.1	–	–
CN1CC=C(c2c(O)cc(O)c3c(=O)cc(-c4ccccc4)oc23)CC1 [Compound G1, 5,7-hydroxy-8-(1-methyl-1,2,3,6-tetrahydropyridin-4-yl)-2-phenyl-4H-chromen-4-one]	–	3.76	–	–
CN1CC[C@H](c2c(O)cc(O)c3c(=O)cc(-c4ccccc4Cl)oc23)[C@H](O)C1 [flavopiridol, reference compound]	–	–	–	~0.13
